Measurements as given in ChEMBL document CHEMBL1201862, “PubChem BioAssay data set” (2004).
Calls of active or inactive are those of the source.

Columns and labels:
[1] = molecular target: T1, Microphthalmia-associated transcription factor (Homo sapiens, UniProt O75030); test: reducers of TRPM1 reporter luminescence, concentration series – cell-based, SK-MEL-5, cherry-picked, set 3, MITF inhibitor project, dose response (AID 493073); format: functional;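 further: SK-MEL-5 melanoma cells with luciferase driven by the MITF target TRPM1 promoter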
T1 sequence (O75030 whole entry): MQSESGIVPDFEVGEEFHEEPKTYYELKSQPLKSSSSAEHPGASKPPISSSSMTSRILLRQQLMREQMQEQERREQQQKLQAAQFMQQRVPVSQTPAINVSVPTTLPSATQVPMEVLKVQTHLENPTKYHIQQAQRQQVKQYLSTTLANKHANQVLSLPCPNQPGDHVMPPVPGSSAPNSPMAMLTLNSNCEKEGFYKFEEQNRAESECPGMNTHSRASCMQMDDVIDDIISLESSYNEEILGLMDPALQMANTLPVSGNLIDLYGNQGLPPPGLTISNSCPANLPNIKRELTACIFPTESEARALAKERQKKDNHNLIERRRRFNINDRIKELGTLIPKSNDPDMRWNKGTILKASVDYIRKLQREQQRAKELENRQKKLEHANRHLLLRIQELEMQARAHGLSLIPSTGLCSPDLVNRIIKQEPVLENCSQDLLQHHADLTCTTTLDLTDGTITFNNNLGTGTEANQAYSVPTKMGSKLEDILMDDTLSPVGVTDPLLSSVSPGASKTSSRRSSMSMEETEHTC

[2] = molecular target: T2, Small ubiquitin-related modifier 1 (Homo sapiens, UniProt P63165); test: SUMO1 protein interaction blockers, potency – biochemical, fluorescence polarization, uHTS hits, dose response (AID 624382); format: functional; details: read-out: IC50_Mean
[3] = molecular target: T2, Small ubiquitin-related modifier 1; test: SUMO1 protein-protein binding blockers, potency – biochemical, FRET, dose response (AID 624383); format: functional; details: read-out: IC50_Mean
Leucine aminopeptidase = molecular target: T3, Leucine aminopeptidase (Plasmodium falciparum 3D7, UniProt Q8IL11); test: P. falciparum M17LAP inhibitors, primary screen, biochemical, fluorogenic H-Leu-NHMec substrate, 1536-well (AID 1619); format: functional
T3 sequence (Q8IL11 whole entry): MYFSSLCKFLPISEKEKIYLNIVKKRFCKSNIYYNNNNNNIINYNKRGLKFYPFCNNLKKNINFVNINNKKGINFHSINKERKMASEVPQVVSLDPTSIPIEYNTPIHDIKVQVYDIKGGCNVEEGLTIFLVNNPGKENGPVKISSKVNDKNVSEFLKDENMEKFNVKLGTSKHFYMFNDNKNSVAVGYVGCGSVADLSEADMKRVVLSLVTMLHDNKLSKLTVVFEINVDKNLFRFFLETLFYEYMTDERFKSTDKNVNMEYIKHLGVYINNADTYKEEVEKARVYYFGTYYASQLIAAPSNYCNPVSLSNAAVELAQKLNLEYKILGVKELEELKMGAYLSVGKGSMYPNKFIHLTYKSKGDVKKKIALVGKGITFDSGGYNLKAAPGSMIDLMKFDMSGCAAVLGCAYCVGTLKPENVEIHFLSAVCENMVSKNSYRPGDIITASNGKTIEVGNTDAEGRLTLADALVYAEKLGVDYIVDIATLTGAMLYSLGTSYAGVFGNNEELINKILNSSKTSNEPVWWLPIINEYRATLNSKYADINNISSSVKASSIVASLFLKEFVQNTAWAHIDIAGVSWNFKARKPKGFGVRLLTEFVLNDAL

[4] = reduced cellular PGC1a acetyl-lysine signal – cell-based, cherry-picked samples, dose response (AID 720514); format: functional;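 further: potency may reflect raised or lowered acetylation signal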
[5] = molecular target: T4, Zinc finger protein mex-5 (Caenorhabditis elegans, UniProt Q9XUB2); test: potency of MEX-5 RNA-binding blockers – biochemical, C. elegans, fluorescence polarization, dose response (AID 1960)
T4 sequence (Q9XUB2 whole entry): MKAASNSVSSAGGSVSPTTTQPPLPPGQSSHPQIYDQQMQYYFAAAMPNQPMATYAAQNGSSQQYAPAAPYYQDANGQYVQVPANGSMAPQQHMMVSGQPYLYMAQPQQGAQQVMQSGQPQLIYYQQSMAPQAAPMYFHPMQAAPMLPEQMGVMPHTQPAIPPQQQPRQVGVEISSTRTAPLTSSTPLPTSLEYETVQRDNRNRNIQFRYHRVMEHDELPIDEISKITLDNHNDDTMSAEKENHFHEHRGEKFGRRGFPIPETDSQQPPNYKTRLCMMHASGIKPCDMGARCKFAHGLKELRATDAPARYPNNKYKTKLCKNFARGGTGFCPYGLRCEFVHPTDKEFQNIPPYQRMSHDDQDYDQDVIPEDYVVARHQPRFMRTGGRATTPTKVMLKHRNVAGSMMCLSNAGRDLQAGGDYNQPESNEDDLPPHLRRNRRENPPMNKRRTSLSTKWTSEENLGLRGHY

[6] = molecular target: T5, Replicative DNA helicase DnaB (Mycobacterium tuberculosis, UniProt P9WMR3); test: DnaB intein splicing inhibitors, dose response, biochemical, cell-free fluorescence (AID 449749); format: functional
T5 sequence (P9WMR3 whole entry): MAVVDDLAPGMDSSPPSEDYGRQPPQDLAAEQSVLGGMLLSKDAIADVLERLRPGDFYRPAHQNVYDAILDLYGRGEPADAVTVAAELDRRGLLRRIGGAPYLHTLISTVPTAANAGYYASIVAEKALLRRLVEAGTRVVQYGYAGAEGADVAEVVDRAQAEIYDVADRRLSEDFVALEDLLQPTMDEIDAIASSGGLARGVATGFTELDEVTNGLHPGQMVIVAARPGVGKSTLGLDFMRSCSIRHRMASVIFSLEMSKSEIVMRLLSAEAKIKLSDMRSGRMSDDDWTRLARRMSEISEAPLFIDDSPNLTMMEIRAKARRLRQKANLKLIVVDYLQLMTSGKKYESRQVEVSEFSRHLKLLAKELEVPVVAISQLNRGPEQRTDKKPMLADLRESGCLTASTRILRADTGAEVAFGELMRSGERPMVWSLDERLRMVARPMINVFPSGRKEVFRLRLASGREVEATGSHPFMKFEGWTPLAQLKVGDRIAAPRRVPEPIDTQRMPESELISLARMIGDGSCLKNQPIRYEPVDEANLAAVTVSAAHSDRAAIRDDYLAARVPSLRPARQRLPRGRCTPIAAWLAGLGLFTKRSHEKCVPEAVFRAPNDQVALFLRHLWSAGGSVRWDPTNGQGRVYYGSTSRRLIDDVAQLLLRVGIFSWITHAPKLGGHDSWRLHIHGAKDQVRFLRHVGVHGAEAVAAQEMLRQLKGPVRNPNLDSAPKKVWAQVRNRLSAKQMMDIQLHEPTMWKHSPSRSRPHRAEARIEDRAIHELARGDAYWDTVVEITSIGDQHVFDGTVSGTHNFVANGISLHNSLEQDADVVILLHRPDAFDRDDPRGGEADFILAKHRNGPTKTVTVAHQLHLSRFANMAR

Large T antigen = Large T antigen (Simian virus 40, UniProt P03070); format: functional, Betapolyomavirus macacae;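 further: Confirmatory-stage PubChem screen for compounds that inhibit SV40 T antigen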
Protein RecA = molecular target: T6, Protein RecA (Mycobacterium tuberculosis, UniProt P9WHJ3); test: Fluorescence Cell-Free Homogeneous Dose Retest to Identify Inhibitors of RecA-Intein Splicing Activity. [Related pubchem assays (depositor defined):AID2097, AID2223, AID489010, AID492950]; format: functional
T6 sequence (P9WHJ3 whole entry): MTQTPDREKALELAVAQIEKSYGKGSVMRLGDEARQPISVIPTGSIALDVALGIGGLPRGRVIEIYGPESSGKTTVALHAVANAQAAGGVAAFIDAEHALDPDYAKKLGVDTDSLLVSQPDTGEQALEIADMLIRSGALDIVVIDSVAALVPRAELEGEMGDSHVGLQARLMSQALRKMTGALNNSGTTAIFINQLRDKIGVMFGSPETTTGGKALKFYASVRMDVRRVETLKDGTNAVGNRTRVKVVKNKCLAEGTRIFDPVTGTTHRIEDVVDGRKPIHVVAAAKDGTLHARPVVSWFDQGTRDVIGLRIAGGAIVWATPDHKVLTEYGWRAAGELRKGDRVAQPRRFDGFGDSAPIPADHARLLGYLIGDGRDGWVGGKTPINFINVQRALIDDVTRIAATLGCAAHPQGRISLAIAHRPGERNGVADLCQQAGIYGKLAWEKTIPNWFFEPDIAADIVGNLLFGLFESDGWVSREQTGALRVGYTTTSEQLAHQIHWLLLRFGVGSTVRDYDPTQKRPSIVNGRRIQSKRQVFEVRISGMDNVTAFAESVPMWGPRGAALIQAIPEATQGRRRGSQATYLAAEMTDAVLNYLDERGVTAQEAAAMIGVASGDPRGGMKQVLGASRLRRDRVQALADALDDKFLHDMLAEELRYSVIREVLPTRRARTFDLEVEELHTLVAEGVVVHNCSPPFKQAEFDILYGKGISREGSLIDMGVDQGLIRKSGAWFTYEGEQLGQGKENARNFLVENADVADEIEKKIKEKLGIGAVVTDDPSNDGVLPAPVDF

[7] = molecular target: T7, RNA-binding protein pos-1 (Caenorhabditis elegans, UniProt G5EF15); test: disruptors of C. elegans POS-1 RNA interaction – biochemical, fluorescence polarization, dose response (AID 1964);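 further: purified POS-1 fused to maltose binding protein made in E. coli; potency of compounds blocking POS-1 binding to fluorescent RNA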
T7 sequence (G5EF15 whole entry): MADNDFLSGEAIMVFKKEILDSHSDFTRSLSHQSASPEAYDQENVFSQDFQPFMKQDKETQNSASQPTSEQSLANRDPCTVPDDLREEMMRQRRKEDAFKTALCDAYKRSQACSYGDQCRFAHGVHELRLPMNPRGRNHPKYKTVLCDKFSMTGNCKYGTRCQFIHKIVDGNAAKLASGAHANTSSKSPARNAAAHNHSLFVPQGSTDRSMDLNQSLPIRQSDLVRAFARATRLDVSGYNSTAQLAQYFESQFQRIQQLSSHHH

Cytochrome P450 2C9 = Cytochrome P450 2C9 (Homo sapiens, UniProt P11712)
Cytochrome P450 3A4 = Cytochrome P450 3A4 (Homo sapiens, UniProt P08684);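 further: CYP3A4 tested as one member of a cytochrome P450 panel screen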
Cytochrome P450 2D6 = Cytochrome P450 2D6 (Homo sapiens, UniProt P10635);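 further: CYP2D6 member of a cytochrome P450 panel assay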
Cytochrome P450 2C19 = Cytochrome P450 2C19 (Homo sapiens, UniProt P33261); test: Cytochrome panel assay with activity outcomes. Panel member name: p450-cyp2c19 Compounds with AC50 equal or less than 10 uM are considered active; format: functional; details: read-out: AC50
[8] = blockers of bursicon-stimulated LGR2 cAMP reporter – cell-based, HEK293, CRE-luciferase reporter, cherry pick, set 2, dose response (AID 743343); format: functional;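 further: transfected cells were stimulated with diluted bursicon conditioned medium after compound addition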
[9] = blockade of melanocortin 4 receptor signaling – cell-based, plate reader, cherry pick, counter-screen for LGR2 antagonist project, dose response (AID 743444); format: functional;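 further: transfected HEK 293 cells stimulated with alpha-MSH peptide; potency of inhibitors of the alpha-MSH evoked signal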

T2 sequence (P63165 whole entry): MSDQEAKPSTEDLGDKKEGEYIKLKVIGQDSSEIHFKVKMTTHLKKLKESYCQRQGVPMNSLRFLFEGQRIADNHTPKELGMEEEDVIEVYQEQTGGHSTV
Chain of Cytochrome P450 2C9 (P11712 whole entry): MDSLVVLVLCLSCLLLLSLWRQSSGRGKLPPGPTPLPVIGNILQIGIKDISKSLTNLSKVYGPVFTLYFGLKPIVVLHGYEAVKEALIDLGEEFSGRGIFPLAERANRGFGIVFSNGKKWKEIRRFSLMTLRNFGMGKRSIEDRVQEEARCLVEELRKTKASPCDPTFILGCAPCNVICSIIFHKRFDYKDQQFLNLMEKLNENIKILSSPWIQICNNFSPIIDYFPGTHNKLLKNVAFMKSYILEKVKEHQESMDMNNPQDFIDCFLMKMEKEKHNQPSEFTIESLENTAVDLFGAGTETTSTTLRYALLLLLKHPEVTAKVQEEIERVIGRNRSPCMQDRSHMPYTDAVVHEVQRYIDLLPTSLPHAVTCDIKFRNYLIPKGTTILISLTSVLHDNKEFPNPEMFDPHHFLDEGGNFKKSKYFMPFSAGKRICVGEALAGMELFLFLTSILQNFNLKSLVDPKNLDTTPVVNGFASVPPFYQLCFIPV
Chain of Cytochrome P450 3A4 (P08684 whole entry): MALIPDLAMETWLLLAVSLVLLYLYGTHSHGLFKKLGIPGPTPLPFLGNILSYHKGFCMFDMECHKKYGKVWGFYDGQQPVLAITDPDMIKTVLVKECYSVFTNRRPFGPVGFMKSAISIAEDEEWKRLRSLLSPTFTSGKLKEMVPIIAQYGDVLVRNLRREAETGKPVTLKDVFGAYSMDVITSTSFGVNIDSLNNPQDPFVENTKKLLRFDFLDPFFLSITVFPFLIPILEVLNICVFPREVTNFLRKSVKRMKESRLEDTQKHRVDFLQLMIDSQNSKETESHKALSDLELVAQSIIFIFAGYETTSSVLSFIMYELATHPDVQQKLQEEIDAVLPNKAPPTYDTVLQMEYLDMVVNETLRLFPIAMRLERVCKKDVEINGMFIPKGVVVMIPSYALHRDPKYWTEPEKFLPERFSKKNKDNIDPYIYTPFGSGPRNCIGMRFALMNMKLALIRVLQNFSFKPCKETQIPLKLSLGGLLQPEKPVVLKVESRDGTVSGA
Chain of Cytochrome P450 2D6 (P10635 whole entry): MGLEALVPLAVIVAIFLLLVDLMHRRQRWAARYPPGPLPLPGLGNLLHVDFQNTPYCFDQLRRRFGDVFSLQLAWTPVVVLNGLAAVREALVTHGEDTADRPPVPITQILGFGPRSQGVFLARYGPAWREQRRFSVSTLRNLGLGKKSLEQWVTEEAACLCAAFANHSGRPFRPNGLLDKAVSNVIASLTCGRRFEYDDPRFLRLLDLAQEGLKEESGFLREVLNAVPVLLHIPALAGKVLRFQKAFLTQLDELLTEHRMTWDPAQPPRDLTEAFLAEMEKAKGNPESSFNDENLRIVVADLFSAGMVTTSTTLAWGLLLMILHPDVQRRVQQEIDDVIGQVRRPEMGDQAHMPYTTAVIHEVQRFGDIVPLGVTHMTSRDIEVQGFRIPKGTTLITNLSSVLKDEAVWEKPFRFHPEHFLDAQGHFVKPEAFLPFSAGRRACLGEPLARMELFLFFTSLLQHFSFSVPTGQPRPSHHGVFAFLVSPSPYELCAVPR
Chain of Cytochrome P450 2C19 (P33261 whole entry): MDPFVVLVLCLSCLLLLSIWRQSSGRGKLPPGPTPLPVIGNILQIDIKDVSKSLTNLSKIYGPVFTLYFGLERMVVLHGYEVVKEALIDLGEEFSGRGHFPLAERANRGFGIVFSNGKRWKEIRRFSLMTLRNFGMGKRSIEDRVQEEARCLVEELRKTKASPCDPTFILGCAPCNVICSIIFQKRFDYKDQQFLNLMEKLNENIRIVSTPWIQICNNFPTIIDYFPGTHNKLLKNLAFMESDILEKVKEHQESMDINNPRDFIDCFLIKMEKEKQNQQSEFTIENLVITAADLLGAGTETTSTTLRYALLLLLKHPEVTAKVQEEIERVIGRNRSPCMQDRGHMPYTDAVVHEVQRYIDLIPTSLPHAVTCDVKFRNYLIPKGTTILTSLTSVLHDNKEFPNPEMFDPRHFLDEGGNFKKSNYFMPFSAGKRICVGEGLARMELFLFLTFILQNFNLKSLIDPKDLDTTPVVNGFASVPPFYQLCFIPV
Chain of Large T antigen (P03070 whole entry): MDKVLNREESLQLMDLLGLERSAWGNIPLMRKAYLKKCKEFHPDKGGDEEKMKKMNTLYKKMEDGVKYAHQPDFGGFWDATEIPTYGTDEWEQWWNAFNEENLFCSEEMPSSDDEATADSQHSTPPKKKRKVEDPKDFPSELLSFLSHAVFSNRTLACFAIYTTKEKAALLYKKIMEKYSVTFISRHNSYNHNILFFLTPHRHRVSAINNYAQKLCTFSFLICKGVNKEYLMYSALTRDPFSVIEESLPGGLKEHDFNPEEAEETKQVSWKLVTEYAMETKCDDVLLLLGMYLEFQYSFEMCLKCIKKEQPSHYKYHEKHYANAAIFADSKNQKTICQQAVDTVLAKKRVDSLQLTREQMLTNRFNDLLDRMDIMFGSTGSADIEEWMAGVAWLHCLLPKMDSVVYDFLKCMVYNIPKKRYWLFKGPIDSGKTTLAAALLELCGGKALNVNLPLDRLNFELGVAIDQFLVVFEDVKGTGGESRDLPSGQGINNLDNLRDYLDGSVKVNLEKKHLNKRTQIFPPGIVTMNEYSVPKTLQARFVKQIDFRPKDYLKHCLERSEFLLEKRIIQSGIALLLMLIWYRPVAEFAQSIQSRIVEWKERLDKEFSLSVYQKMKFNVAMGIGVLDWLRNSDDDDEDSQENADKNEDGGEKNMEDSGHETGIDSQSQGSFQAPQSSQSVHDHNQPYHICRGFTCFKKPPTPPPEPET

O=C(NCc1ccccc1)C(=O)Nc1cccc(C(=O)O)c1
AC50 [1]: 4.85 µM (active)

CC(CC(=O)OCC(=O)Nc1ccc2[nH]c(O)nc2c1)c1ccccc1 (stereo not given)
IC50 [2]: > 66.6 µM (inactive) | IC50 [3]: 21 µM (inactive)

O=C(Nc1c(C(=O)O)oc2ccc(Br)cc12)c1ccccc1
IC50 (Leucine aminopeptidase): 5.42 µM (active)

CCC(CO)Oc1cc(NC(=O)c2ccccc2F)c2ncn(C(C)C)c2c1 (stereo not given)
IC50 [2]: > 66.6 µM (inactive) | IC50 [3]: 12.2 µM (active)

O=C(O)C1CCCCC1C(=O)Nc1ccc2c(c1)OCCO2 (stereo not given)
IC50 (Leucine aminopeptidase): 32.9 µM (active)

CCC(=O)Nc1cc2nn(-c3ccc(C)cc3)nc2cc1C
AC50 [1]: 4.15 µM (active)

CC(=O)Nc1ccc(S(=O)(=O)N2CCn3cccc3C2C)cc1 (stereo not given)
AC50 [1]: 28.6 µM (active)

COc1cc(SC)ccc1C(=O)Nc1ccc(Br)cn1
AC50 [1]: 7.36 µM (active)

COc1cc(CN2C[C@@H]3N[C@H](C2)[C@H]3c2ccc(-c3cccc(OC)c3)cc2)cc(OC)c1
AC50 [4]: 24.5 µM (active)

COc1cc(C2C(C#N)=C(N)Oc3[nH]nc(-c4cccnc4)c32)cc(Br)c1O (stereo not given)
EC50 [5]: > 300 µM (not active) | AC50 [6]: 5.65 µM (active) | IC50 (Large T antigen): 57 µM (active) | EC50 (Protein RecA): 2.06 µM (active) | EC50 [7]: > 300 µM (not active)

COc1ccccc1NC(=O)CC1COc2ccccc2O1 (stereo not given)
AC50 (Cytochrome P450 2C9): 5.62 µM (inconclusive) | AC50 (Cytochrome P450 3A4): 14.1 µM (inconclusive) | AC50 (Cytochrome P450 2D6): 12.6 µM (inconclusive) | IC50 (Leucine aminopeptidase): 5.29 µM (active)

C[C@@H]1CN([C@@H](C)CO)S(=O)(=O)c2ccc(C#CC3CCCCC3)cc2O[C@H]1CN(C)Cc1cccnc1
AC50 [4]: 15.1 µM (active)

CCn1c(C)c(C)c2cc(C(=O)NCCN3CCOCC3)ccc21
AC50 [4]: 25.5 µM (active)

O=C(O)C1CCCCC1C(=O)Nc1cccc(Cl)c1Cl (stereo not given)
IC50 (Leucine aminopeptidase): 13.5 µM (active)

O=C(N/N=C/c1ccncc1)c1cc2c(ccc3ccccc32)o1
AC50 (Cytochrome P450 2C19): 8.91 µM (inconclusive) | IC50 [2]: > 66.6 µM (inactive) | IC50 [3]: 100 µM (inactive) | AC50 (Cytochrome P450 2C9): 0.794 µM (inconclusive)

COc1cccc2c(=O)n(CC(=O)N3CCCCCC3)ccc12
IC50 (Leucine aminopeptidase): 17.6 µM (active)

Cc1cc(C(=O)Nc2ccc(N3CCCCC3)cc2)no1
AC50 [8]: 13.3 µM (active) | AC50 [9]: 13.1 µM (active)
